Assay results from patent US20230255953A1, “USE OF ROLUPERIDONE IN PREVENTING RELAPSE IN SCHIZOPHRENIA PATIENTS” (Minerva Neurosciences, Inc., priority 2022, published 2023).

What was measured:
histaminergic receptors = conditions: background statement; cited from earlier work
[1] = test system: patients with negative symptoms of schizophrenia; test: Integrated analysis (pooled ITT): CGI-S and CGI-I; format: in vivo, human; conditions: for CGI-I Score, Difference (95% CI) in LS mean (vs placebo) / CGI-I Score, LS mean (SE) / CGI-I Score, Mean (SD) / CGI-I Score, Median / CGI-S Score change from Baseline, LS mean (SE) / CGI-S Score change from Baseline, Mean (SD) / CGI-S Score change from Baseline, Median / CGI-S Score, Difference (95% CI) in LS mean (vs placebo): DB; for CGI-I Score, Difference (95% CI) in LS mean (vs placebo) / CGI-I Score, LS mean (SE) / CGI-I Score, Mean (SD) / CGI-I Score, Median / CGI-S Score change from Baseline, LS mean (SE) / CGI-S Score change from Baseline, Mean (SD) / CGI-S Score change from Baseline, Median / CGI-S Score, Difference (95% CI) in LS mean (vs placebo) / CGI-I score, LS mean compared with placebo / CGI-S score, LS mean change from Baseline compared with placebo: pooled ITT; for Clinical Global Impression of Severity, Change from Baseline (LS Means [SEM]) / Clinical Global Impression of Improvement (LS Means [SEM]): ITT; for Clinical Global Impression of Improvement (LS Means [SEM]): observed data, MMRM with Baseline CGI-S as covariate
Text: The primary integrated analysis of the efficacy of Roluperidone compared with placebo for the treatment of negative symptoms of schizophrenia is based on the change from Baseline in the PANSS Marder's negative symptoms factor score (in this document referred to as NSFS) to Week 12. Efficacy is also supported by the analysis of change from Baseline in the PSP Total score and the CGI-S to Week 12.
The CGI-S is a clinician-rated scale that is designed to rate the severity of the patient's illness at the time of assessment, including knowledge of the patient's history, psychosocial circumstances, symptoms, behavior, and the impact of the symptoms on the patient's ability to function relative to the clinician's past experience with patients who have the same diagnosis and similar improvement with treatment. Considering total clinical experience, a patient is assessed on severity of mental illness at the time of rating, where 1=normal (not at all ill); 2=borderline mentally ill; 3=mildly ill; 4=moderately ill; 5=markedly ill; 6=severely ill; or 7=extremely ill.
The Efficacy data from Study Nos. 1 and 2 were pooled. The majority of patients in the pooled ITT population completed the DB period (502 patients overall, 66.3%), with similar rates in each treatment group (placebo: 69.8%, 32 mg Roluperidone: 65.3%, and 64 mg Roluperidone: 63.8%) (Table 12). The majority (62.7%) of those who completed the DB period entered the OL period. The most common reason for discontinuation during the DB period among patients overall was withdrawal of consent (15.6%), followed by adverse events (7.3%) and lack of efficacy (5.4%) (Table 12). […] Approximately twice as many patients in the Roluperidone groups (32 mg: 8.5%; 64 mg: 9.1%) discontinued due to adverse events compared with patients in the placebo group (4.3%). More patients in the placebo group discontinued due to lack of efficacy (6.7%) than in the Roluperidone groups (32 mg: 4.4%; 64 mg: 5.1%). The low number of patients who discontinued due to lack of efficacy or withdrawal of consent probably reflects a low level of worsening of positive symptoms.
The integrated analysis supporting the efficacy of Roluperidone as a treatment for the negative symptoms of schizophrenia in adults is presented below.

1H-Isoindol-1-one,2-[ [1-[2-(4-fluorophenyl)-2-oxoethyl]-4-piperidinyl]methyl]-2,3-dihydro-, hydrochloride, hydrate (1:1:2) [Roluperidone]
Affinity (histaminergic receptors): very low or no affinity | CGI-I Score, Difference (95% CI) in LS mean (vs placebo) ([1]; 32 mg, Week 2): 0.0 | CGI-I Score, LS mean (SE) ([1]; 32 mg, Week 2): 3.9 (0.05) | CGI-I Score, Mean (SD) ([1]; 32 mg, Week 2): 3.9 (0.68) | CGI-I Score, Median ([1]; 32 mg, Week 2): 4.0 | CGI-S Score change from Baseline, LS mean (SE) ([1]; 32 mg, Week 2): −0.1 (0.04) | CGI-S Score change from Baseline, Mean (SD) ([1]; 32 mg, Week 2): −0.1 (0.47) | CGI-S Score change from Baseline, Median ([1]; 32 mg, Week 2): 0.0 | CGI-S Score, Difference (95% CI) in LS mean (vs placebo) ([1]; 32 mg, Week 2): 0.0 | CGI-I Score, Difference (95% CI) in LS mean (vs placebo) ([1]; 32 mg, Week 4): −0.2 | CGI-I Score, LS mean (SE) ([1]; 32 mg, Week 4): 3.6 (0.05) | CGI-I Score, Mean (SD) ([1]; 32 mg, Week 4): 3.6 (0.76) | CGI-I Score, Median ([1]; 32 mg, Week 4): 4.0 | CGI-S Score change from Baseline, LS mean (SE) ([1]; 32 mg, Week 4): −0.1 (0.03) | CGI-S Score change from Baseline, Mean (SD) ([1]; 32 mg, Week 4): −0.1 (0.50) | CGI-S Score change from Baseline, Median ([1]; 32 mg, Week 4): 0.0 | CGI-S Score, Difference (95% CI) in LS mean (vs placebo) ([1]; 32 mg, Week 4): −0.1 | CGI-I Score, Difference (95% CI) in LS mean (vs placebo) ([1]; 32 mg, Week 8): −0.1 | CGI-I Score, LS mean (SE) ([1]; 32 mg, Week 8): 3.5 (0.06) | CGI-I Score, Mean (SD) ([1]; 32 mg, Week 8): 3.4 (0.80) | CGI-I Score, Median ([1]; 32 mg, Week 8): 3.0 | CGI-S Score change from Baseline, LS mean (SE) ([1]; 32 mg, Week 8): −0.2 (0.04) | CGI-S Score change from Baseline, Mean (SD) ([1]; 32 mg, Week 8): −0.3 (0.58) | CGI-S Score change from Baseline, Median ([1]; 32 mg, Week 8): 0.0 | CGI-S Score, Difference (95% CI) in LS mean (vs placebo) ([1]; 32 mg, Week 8): −0.1 | CGI-I Score, Difference (95% CI) in LS mean (vs placebo) ([1]; 32 mg, Week 12): −0.0 | CGI-I Score, LS mean (SE) ([1]; 32 mg, Week 12): 3.5 (0.07) | CGI-I Score, Mean (SD) ([1]; 32 mg, Week 12): 3.4 (0.82) | CGI-I Score, Median ([1]; 32 mg, Week 12): 3.0 | CGI-S Score change from Baseline, LS mean (SE) ([1]; 32 mg, Week 12): −0.3 (0.05) | CGI-S Score change from Baseline, Mean (SD) ([1]; 32 mg, Week 12): −0.4 (0.65) | CGI-S Score change from Baseline, Median ([1]; 32 mg, Week 12): 0.0 | CGI-S Score, Difference (95% CI) in LS mean (vs placebo) ([1]; 32 mg, Week 12): −0.1 | Clinical Global Impression of Severity, Change from Baseline (LS Means [SEM]) ([1]; 32 mg, Week 12): −0.3 (0.05) | Clinical Global Impression of Improvement (LS Means [SEM]) ([1]; 32 mg, Week 12): 3.5 (0.07) | CGI-I score, LS mean compared with placebo ([1]; 32 mg, Week 12): −0.0 | CGI-S score, LS mean change from Baseline compared with placebo ([1]; 32 mg, Week 12): −0.1 | CGI-I Score, Difference (95% CI) in LS mean (vs placebo) ([1]; 64 mg, Week 2): 0.0 | CGI-I Score, LS mean (SE) ([1]; 64 mg, Week 2): 3.8 (0.05) | CGI-I Score, Mean (SD) ([1]; 64 mg, Week 2): 3.8 (0.74) | CGI-I Score, Median ([1]; 64 mg, Week 2): 4.0 | CGI-S Score change from Baseline, LS mean (SE) ([1]; 64 mg, Week 2): −0.1 (0.04) | CGI-S Score change from Baseline, Mean (SD) ([1]; 64 mg, Week 2): −0.1 (0.55) | CGI-S Score change from Baseline, Median ([1]; 64 mg, Week 2): 0.0 | CGI-S Score, Difference (95% CI) in LS mean (vs placebo) ([1]; 64 mg, Week 2): −0.0 | CGI-I Score, Difference (95% CI) in LS mean (vs placebo) ([1]; 64 mg, Week 4): −0.2 | CGI-I Score, LS mean (SE) ([1]; 64 mg, Week 4): 3.6 (0.05) | CGI-I Score, Mean (SD) ([1]; 64 mg, Week 4): 3.5 (0.72) | CGI-I Score, Median ([1]; 64 mg, Week 4): 4.0 | CGI-S Score change from Baseline, LS mean (SE) ([1]; 64 mg, Week 4): −0.2 (0.03) | CGI-S Score change from Baseline, Mean (SD) ([1]; 64 mg, Week 4): −0.3 (0.56) | CGI-S Score change from Baseline, Median ([1]; 64 mg, Week 4): 0.0 | CGI-S Score, Difference (95% CI) in LS mean (vs placebo) ([1]; 64 mg, Week 4): −0.2 | CGI-I Score, Difference (95% CI) in LS mean (vs placebo) ([1]; 64 mg, Week 8): −0.2 | CGI-I Score, LS mean (SE) ([1]; 64 mg, Week 8): 3.4 (0.06) | CGI-I Score, Mean (SD) ([1]; 64 mg, Week 8): 3.4 (0.81) | CGI-I Score, Median ([1]; 64 mg, Week 8): 3.0 | CGI-S Score change from Baseline, LS mean (SE) ([1]; 64 mg, Week 8): −0.3 (0.04) | CGI-S Score change from Baseline, Mean (SD) ([1]; 64 mg, Week 8): −0.3 (0.66) | CGI-S Score change from Baseline, Median ([1]; 64 mg, Week 8): 0.0 | CGI-S Score, Difference (95% CI) in LS mean (vs placebo) ([1]; 64 mg, Week 8): −0.2 | CGI-I Score, Difference (95% CI) in LS mean (vs placebo) ([1]; 64 mg, Week 12): −0.2 | CGI-I Score, LS mean (SE) ([1]; 64 mg, Week 12): 3.4 (0.07) | CGI-I Score, Mean (SD) ([1]; 64 mg, Week 12): 3.3 (0.85) | CGI-I Score, Median ([1]; 64 mg, Week 12): 3.0 | CGI-S Score change from Baseline, LS mean (SE) ([1]; 64 mg, Week 12): −0.4 (0.05) | CGI-S Score change from Baseline, Mean (SD) ([1]; 64 mg, Week 12): −0.4 (0.69) | CGI-S Score change from Baseline, Median ([1]; 64 mg, Week 12): 0.0 | CGI-S Score, Difference (95% CI) in LS mean (vs placebo) ([1]; 64 mg, Week 12): −0.2 | Clinical Global Impression of Severity, Change from Baseline (LS Means [SEM]) ([1]; 64 mg, Week 12): −0.4 (0.05) | Clinical Global Impression of Improvement (LS Means [SEM]) ([1]; 64 mg, Week 12): 3.4 (0.07) | CGI-I score, LS mean compared with placebo ([1]; 64 mg, Week 12): −0.2 | CGI-S score, LS mean change from Baseline compared with placebo ([1]; 64 mg, Week 12): −0.2 | CGI-I Score, Mean (SD) ([1]; Roluperidone Total, Week 2): 3.9 (0.71) | CGI-I Score, Median ([1]; Roluperidone Total, Week 2): 4.0 | CGI-S Score change from Baseline, Mean (SD) ([1]; Roluperidone Total, Week 2): −0.1 (0.51) | CGI-S Score change from Baseline, Median ([1]; Roluperidone Total, Week 2): 0.0 | CGI-I Score, Mean (SD) ([1]; Roluperidone Total, Week 4): 3.6 (0.74) | CGI-I Score, Median ([1]; Roluperidone Total, Week 4): 4.0 | CGI-S Score change from Baseline, Mean (SD) ([1]; Roluperidone Total, Week 4): −0.2 (0.54) | CGI-S Score change from Baseline, Median ([1]; Roluperidone Total, Week 4): 0.0 | CGI-I Score, Mean (SD) ([1]; Roluperidone Total, Week 8): 3.4 (0.81) | CGI-I Score, Median ([1]; Roluperidone Total, Week 8): 3.0 | CGI-S Score change from Baseline, Mean (SD) ([1]; Roluperidone Total, Week 8): −0.3 (0.62) | CGI-S Score change from Baseline, Median ([1]; Roluperidone Total, Week 8): 0.0 | CGI-I Score, Mean (SD) ([1]; Roluperidone Total, Week 12): 3.3 (0.83) | CGI-I Score, Median ([1]; Roluperidone Total, Week 12): 3.0 | CGI-S Score change from Baseline, Mean (SD) ([1]; Roluperidone Total, Week 12): −0.4 (0.67) | CGI-S Score change from Baseline, Median ([1]; Roluperidone Total, Week 12): 0.0
